Experiment [1] concerns the target T1, human adrenergic-α2A receptor (Homo sapiens, UniProt P08913).
T1 construct: expressed in transfected cells; host or cells: CHO cells, stably transfected; membranes
T1 sequence (P08913 1-465): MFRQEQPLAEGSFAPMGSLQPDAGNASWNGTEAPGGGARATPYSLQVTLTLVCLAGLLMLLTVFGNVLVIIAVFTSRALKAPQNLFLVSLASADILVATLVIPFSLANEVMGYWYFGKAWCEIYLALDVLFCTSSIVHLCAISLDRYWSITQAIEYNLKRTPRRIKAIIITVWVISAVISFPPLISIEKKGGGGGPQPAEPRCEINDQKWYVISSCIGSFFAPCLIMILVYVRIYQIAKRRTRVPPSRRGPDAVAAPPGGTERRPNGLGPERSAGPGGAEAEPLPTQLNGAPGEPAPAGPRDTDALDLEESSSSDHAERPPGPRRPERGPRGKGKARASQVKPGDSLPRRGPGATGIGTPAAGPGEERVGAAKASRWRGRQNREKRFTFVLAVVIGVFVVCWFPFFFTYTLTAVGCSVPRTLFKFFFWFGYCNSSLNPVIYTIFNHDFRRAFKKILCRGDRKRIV
Description: Radioligand binding experiment for hα2A receptor ([3H]raulwolscine, CHO cell membranes). The note with it: [3H]raulwolscine 1 nM, membranes of CHO cells transfected with human α2A receptor; read-out: h-α2A pIC50 (converted).

For experiment [2], the target named is T2, human adrenergic-α2C receptor (Homo sapiens, UniProt P18825).
T2 construct: expressed in transfected cells; host or cells: CHO cells, stably transfected; membranes
T2 sequence (P18825 1-462): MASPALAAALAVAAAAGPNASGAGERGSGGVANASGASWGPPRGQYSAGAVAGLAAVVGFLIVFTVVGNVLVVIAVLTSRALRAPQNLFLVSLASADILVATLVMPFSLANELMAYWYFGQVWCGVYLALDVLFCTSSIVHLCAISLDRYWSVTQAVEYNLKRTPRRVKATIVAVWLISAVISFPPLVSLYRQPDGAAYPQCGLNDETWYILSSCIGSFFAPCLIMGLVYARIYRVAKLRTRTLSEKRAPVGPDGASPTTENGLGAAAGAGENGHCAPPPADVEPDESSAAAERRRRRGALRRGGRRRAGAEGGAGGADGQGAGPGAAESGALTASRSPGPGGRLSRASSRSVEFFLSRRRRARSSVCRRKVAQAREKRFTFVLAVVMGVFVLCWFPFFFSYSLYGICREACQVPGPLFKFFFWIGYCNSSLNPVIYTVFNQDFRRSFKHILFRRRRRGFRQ
Description: Radioligand binding experiment for α2C-adrenoceptor ([3H]raulwolscine, CHO cell membranes). As to conditions: [3H]raulwolscine 1 nM, membranes of CHO cells transfected with human α2C receptor; read-out: h-α2C pIC50 (converted).

For experiment [3], the target named is T3, 5HT-Transporter (Homo sapiens, UniProt P31645).
T3 construct: Human platelet membranes (Oceanix Biosciences Corporation, Hanover, Md., USA) were thawed; tissue Oceanix Biosciences Corporation; host or cells: human platelet membranes
Description: Binding experiment for the 5HT-transporter ([3H]paroxetine, human platelet membranes). As to conditions: [3H]paroxetine 0.5 nM, read-out: h-5HTT pIC50 (converted).

We go through six compounds from patent US20100105694A1, “SUBSTITUTED PYRAZINONE DERIVATIVES FOR USE AS A MEDICINE” (priority 2006, published 2010).

Molecules are shown by their SMILES.

T3 sequence (P31645 whole entry): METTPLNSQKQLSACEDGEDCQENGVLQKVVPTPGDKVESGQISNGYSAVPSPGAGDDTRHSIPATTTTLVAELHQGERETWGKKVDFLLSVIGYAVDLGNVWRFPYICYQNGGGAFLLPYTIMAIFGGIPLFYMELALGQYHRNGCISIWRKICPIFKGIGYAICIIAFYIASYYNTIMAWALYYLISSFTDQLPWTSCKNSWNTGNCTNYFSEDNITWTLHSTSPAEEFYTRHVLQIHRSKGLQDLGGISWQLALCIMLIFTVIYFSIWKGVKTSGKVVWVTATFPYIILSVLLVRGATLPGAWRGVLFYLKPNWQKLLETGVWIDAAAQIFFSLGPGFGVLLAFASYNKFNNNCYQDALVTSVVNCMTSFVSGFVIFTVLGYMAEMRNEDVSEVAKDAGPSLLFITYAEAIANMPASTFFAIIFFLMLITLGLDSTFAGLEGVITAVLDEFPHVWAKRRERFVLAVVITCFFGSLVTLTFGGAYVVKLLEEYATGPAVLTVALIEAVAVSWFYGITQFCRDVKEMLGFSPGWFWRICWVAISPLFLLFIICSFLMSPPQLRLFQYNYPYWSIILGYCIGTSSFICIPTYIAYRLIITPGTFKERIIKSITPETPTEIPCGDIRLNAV

For `CN(C)CCCn1ccnc(NC2CCN(Cc3ccc(OCc4ccccc4)cc3)CC2)c1=O` [Compound 11-2], the results for the IC50 in experiment [1], in experiment [2] and in experiment [3] were 794 nM, 794 nM and > 10000 nM, respectively.
On to `CC(C)(C)OC(=O)NCCCn1ccnc(NC2CCN(Cc3ccc(OCc4ccccc4)cc3)CC2)c1=O` [Compound 11-3], for which the IC50 in experiment [1] is 794 nM; in experiment [2] it was 631 nM; in experiment [3] it was > 10000 nM.
Take `O=c1c(NC2CCN(Cc3ccc(OCc4ccccc4)cc3)CC2)nccn1CCN1CCCCC1` [Compound 11-4]: the results for the IC50 in experiment [1], in experiment [2] and in experiment [3] were 1580 nM, 794 nM and > 10000 nM, respectively.
Regarding `O=C1c2ccccc2C(=O)N1CCCn1ccnc(NC2CCN(Cc3ccc(OCc4ccccc4)cc3)CC2)c1=O` [Compound 11-5], the IC50 was 794 nM in experiment [1], 251 nM in experiment [2] and 3160 nM in experiment [3].
In the same order, the values of `O=c1c(NC2CCN(Cc3ccc(OCc4ccccc4)cc3)CC2)nccn1Cc1cccc(Br)c1` [Compound 11-6] are 631 nM, 794 nM and 1580 nM.
With `O=c1c(NC2CCN(Cc3ccc(OCc4ccccc4)cc3)CC2)nccn1Cc1ccc(Br)cc1` [Compound 11-7], the IC50 in experiment [1] was 631 nM; in experiment [2], 631 nM; in experiment [3] it was 1580 nM.
